This is an account of results in patent publication US9434733B2, “PDE9 inhibitors with imidazo triazinone backbone” (H. Lundbeck A/S, priority 2012, dated 2016).

In this experiment the target is PDE9 (Homo sapiens (Human), UniProt O76083). Kind of experiment: PDE9 inhibition assay. Conditions: 10 nM 3H-cAMP, 1 hour incubation, yttrium silicate SPA beads; read-out: PDE9_IC50. The class given is biochemical. How it is done: Reactions are initiated by addition of the cyclic nucleotide substrate, and reactions are allowed to proceed for one hr at room temperature before being terminated through mixing with 15 uL 8 mg/mL yttrium silicate SPA beads (Amersham).
PDE9, sequence (O76083 whole entry): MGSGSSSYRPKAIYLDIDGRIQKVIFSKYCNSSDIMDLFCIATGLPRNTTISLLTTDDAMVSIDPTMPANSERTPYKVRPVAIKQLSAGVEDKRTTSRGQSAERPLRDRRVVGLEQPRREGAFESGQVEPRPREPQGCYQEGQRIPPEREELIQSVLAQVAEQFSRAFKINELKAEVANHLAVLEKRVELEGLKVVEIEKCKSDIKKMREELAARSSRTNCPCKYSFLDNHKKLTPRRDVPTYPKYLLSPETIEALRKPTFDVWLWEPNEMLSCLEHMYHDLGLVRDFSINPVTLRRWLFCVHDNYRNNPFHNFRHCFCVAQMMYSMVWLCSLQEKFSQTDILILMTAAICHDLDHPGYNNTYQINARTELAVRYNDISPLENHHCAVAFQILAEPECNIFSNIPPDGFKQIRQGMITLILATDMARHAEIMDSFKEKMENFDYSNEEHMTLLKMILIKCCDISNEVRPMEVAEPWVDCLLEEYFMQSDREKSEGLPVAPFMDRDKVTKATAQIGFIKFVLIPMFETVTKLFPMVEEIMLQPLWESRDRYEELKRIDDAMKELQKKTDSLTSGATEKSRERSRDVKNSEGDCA
Following a 1 hour incubation the reactions were terminated by addition of 15 uL 8 mg/mL yttrium silicate SPA beads (Amersham). […] IC50 values were calculated by non linear regression using XLfit (IDBS).

Regarding `O=c1[nH]c(CN2CC(Oc3cccnc3)C2)nn2c(C3CCOCC3)ncc12` [2-[[3-(3-pyridyloxy)azetidin-1-yl]methyl]-7-tetrahydropyran-4-yl-3H-imidazo[5,1-f][1,2,4]triazin-4-one], the IC50 was 350 nM.
